The term IC50 denotes the concentration that inhibits the measured activity by half.

These results are taken from patent publication US12011444B2, “N-substituted indole derivatives as PGE2 receptor modulators” (Idorsia Pharmaceuticals Ltd, priority 2015, dated 2024).

One assay addresses EP4 (Homo sapiens (Human), UniProt P35408). Kind of assay: hEP4 cAMP assay (BT549 breast cancer cells, HTRF cAMP). Format: cell-based. Here is the method: Plate is pre-incubated 45 minutes at room temperature. Subsequently, 2.5 microliters of PGE2 (final conc. 6 nM) are transferred into the assay plate. Plate is incubated 30 minutes at room temperature.
Background: cAMP levels reflect the balance of adenylyl cyclase and phosphodiesterase activity.

The target of another assay is EP2 (Homo sapiens (Human), UniProt P43116).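 Note: antagonism of PGE2-stimulated cAMP accumulation in SF295 human glioblastoma cells with endogenous EP2, cAMP read by HTRF, expressed relative to DMSO control.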
Setting [1] is: antagonistic activity, mean values where measured multiple times.
[2] abbreviates: (*): measured using the cAMP assay.

Sequence of EP2 (P43116 whole entry): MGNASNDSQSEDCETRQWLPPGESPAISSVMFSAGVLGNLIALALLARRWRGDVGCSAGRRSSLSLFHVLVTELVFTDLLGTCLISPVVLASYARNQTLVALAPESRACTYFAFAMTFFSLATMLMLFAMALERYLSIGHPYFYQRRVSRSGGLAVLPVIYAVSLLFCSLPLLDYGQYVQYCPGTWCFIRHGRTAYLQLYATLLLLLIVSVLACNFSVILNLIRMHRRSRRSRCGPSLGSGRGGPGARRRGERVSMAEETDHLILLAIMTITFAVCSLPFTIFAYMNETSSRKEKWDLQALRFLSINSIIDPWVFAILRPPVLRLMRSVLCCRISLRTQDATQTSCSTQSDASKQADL
Sequence of EP4 (P35408 whole entry): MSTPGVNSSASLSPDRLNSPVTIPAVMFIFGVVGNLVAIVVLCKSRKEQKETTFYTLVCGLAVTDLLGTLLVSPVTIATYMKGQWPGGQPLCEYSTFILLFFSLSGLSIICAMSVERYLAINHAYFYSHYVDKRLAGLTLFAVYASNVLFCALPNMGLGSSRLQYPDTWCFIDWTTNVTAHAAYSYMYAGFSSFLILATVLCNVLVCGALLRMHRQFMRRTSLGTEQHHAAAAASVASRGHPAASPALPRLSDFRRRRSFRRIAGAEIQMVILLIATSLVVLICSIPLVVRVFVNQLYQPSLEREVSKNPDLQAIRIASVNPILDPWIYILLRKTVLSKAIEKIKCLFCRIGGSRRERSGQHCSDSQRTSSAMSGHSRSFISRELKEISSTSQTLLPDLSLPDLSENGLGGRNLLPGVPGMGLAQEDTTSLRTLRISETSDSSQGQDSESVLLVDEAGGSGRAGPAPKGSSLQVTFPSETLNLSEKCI

`COc1ccc(F)c2c1cc(C)n2CCNc1cc(-c2ccc(-c3csc(CC(N)=O)n3)cc2)ncn1` [Example 786, 2-[4-(4-{6-[2-(7-Fluoro-4-methoxy-2-methyl-indol-1-yl)-ethylamino]-pyrimidin-4-yl}-phenyl)-thiazol-2-yl]-acetamide]: the IC50 on EP4 (setting [1]) was found to be 0.319 µM; at EP2, 0.016 µM.
The like results for `CCOc1cc(-c2cc(NCCn3c(C)cc4c(C)c(F)c(F)cc43)ncn2)ccc1C(=O)O` [Example 787, 4-{6-[2-(5,6-Difluoro-2,4-dimethyl-indol-1-yl)-ethylamino]-pyrimidin-4-yl}-2-ethoxy-benzoic acid] were, in that order, 0.729 µM and 0.021 µM.
Regarding `Cc1ccc(Cl)c2c1cc(C)n2CCNc1cc(-c2ccc(C(=O)O)c(S/C=C/F)c2)ncn1` [Example 788, 4-{6-[2-(7-Chloro-2,4-dimethyl-indol-1-yl)-ethylamino]-pyrimidin-4-yl}-2-((E)-2-fluoro-vinylsulfanyl)-benzoic acid], the figures for the IC50 at EP4 (setting [1]) and against EP2 were 0.925 µM and 0.049 µM, respectively.
In the same order, the values of `Cc1cc2ccccc2n1CCNc1cc(-c2ccc(-c3nnn[nH]3)c(O)c2)ncn1` [Example 789, 5-{6-[2-(2-Methyl-indol-1-yl)-ethylamino]-pyrimidin-4-yl}-2-(1H-tetrazol-5-yl)-phenol] are 0.923 µM and 0.006 µM.
In the case of `CCOC(=O)c1sc(-c2cc(NCCn3c(C)cc4c(OC)ccc(F)c43)ncn2)cc1OCC` [Example 790, 3-Ethoxy-5-{6-[2-(7-fluoro-4-methoxy-2-methyl-indol-1-yl)-ethylamino]-pyrimidin-4-yl}-thiophene-2-carboxylic acid ethyl ester], the half-inhibitory concentration (IC50) at EP4 (setting [1]) turned out to be 0.101 µM; against EP2 it was 0.042 µM.
Consider `COc1ccc(F)c2c1cc(C)n2CCNc1cc(-c2ccc(C3(C(=O)O)CCCC3)cc2)ncn1` [Example 791, 1-(4-{6-[2-(7-Fluoro-4-methoxy-2-methyl-indol-1-yl)-ethylamino]-pyrimidin-4-yl}-phenyl)-cyclopentanecarboxylic acid], for which the results for the IC50 at EP4 (setting [1]) and on EP2 were 0.639 µM and 0.325 µM, respectively.
As to `Cc1cc2ccccc2n1CCNc1cc(-c2ccc(-c3nnn[nH]3)s2)ncn1` [Example 792, [2-(2-Methyl-indol-1-yl)-ethyl]-{6-[5-(1H-tetrazol-5-yl)-thiophen-2-yl]-pyrimidin-4-yl}-amine], the half-inhibitory concentration (IC50) against EP4 (setting [1]) is 0.227 µM; on EP2 it was 0.002 µM.
In the same order, the values of `COc1ccc(F)c2c1cc(C)n2CCNc1cc(-c2ccc(-c3nnn[nH]3)s2)ncn1` [Example 793, [2-(7-Fluoro-4-methoxy-2-methyl-indol-1-yl)-ethyl]-{6-[5-(1H-tetrazol-5-yl)-thiophen-2-yl]-pyrimidin-4-yl}-amine] are 0.018 µM and 0.003 µM.
As to `CCOc1cc(-c2cc(NCCn3c(C#N)cc4c(OC)ccc(F)c43)ncn2)sc1C(=O)NS(=O)(=O)C1CC1` [Example 816, Cyclopropanesuifonic acid (5-{6-[2-(2-cyano-7-fluoro-4-methoxy-indol-1-yl)-ethylamino]-pyrimidin-4-yl}-3-ethoxy-thiophene-2-carbonyl)-amide], the IC50 at EP4 (setting [2]) is 0.015 µM; at EP2 it was 0.024 µM.
On to `CCOc1cc(-c2cc(NCCn3c(C#N)cc4c(OC)ccc(F)c43)ncn2)sc1/C=C/C(=O)O` [Example 931, (E)-3-(5-{6-[2-(2-Cyano-7-fluoro-4-methoxy-indol-1-yl)-ethylamino]-pyrimidin-4-yl}-3-ethoxy-thiophen-2-yl)-acrylic acid], for which the IC50 on EP4 (setting [2]) was found to be 0.014 µM; against EP2 it was 0.035 µM.
`CCOc1cc(-c2cc(NCCn3c(C#N)cc4c(Cl)cc(F)c(F)c43)ncn2)sc1C(=O)O` [Example 941, 5-{6-[2-(4-Chloro-2-cyano-6,7-difluoro-indol-1-yl)-ethylamino]-pyrimidin-4-yl}-3-ethoxy-thiophene-2-carboxylic acid]: the IC50 at EP4 (setting [2]) is 0.029 µM; against EP2, 0.011 µM.
Regarding `CCNc1cc(-c2cc(NCCn3c(C)cc4c(OC)ccc(Cl)c43)ncn2)ccc1C(=O)O` [compound 396], the figures for the IC50 at EP4 (setting [1]) and against EP2 were 0.065 µM and 0.001 µM, respectively.
